Measured values: US20080070961A1, “Polymorphs of N-(2-acetyl-4,6-dimethylphenyl)-3-{[(3,4 dimethyl-5-isoxazolyl)-amino]sulfonyl}-2-thiophene-carboxamide” (priority 2006, published 2008)
≈ marks a conversion by molar mass, not a printed value. Entries after “also recorded” stand apart in the source; their conditions may differ. Blank lines part the entries; values can stand above or below the compound they belong to.

Legend:
[1] = Moisture sorption/desorption; assay type: physicochemical; conditions: for XRPD Results after the moisture sorption/desorption experiment: sorption 5 to 95% RH, desorption 95 to 5% RH
Experimental: The moisture sorption/desorption data was collected on a VT SGA-100 moisture balance system. For sorption isotherms, a sorption range of 5 to 95% relative humidity (RH) and a desorption range of 95 to 5% RH in 10% RH increments were used for analysis. The sample was not dried prior to analysis. Equilibrium criteria used for analysis was less than 0.0100% weight change in 5 minutes with a maximum equilibration time of 3 hours if the weight criterion was not met. Data was not corrected for the initial moisture content of the samples.

[2] = Grinding experiments (mortar and pestle, XRPD); assay type: physicochemical
Experimental: N-(2-acetyl-4,6-dimethylphenyl)-3-{[(3 ,4-dimethyl-5-isoxazolyl)amino]-sulfonyl}-2-thiophenecaboxamide material was ground by hand with a mortar and pestle for 30 sec, 1, 2, and 5 minutes. The samples were then analyzed by XRPD.

[3] = Interconversion experiments (slurries of two forms, XRPD); assay type: physicochemical
Experimental: Interconversion experiments were carried out by making slurries containing two forms of N-(2-acetyl-4,6-dimethylphenyl)-3 -{[(3,4-dimethyl-5-isoxazolyl)amino]-sulfonyl}-2-thiophenecaboxamide in saturated toluene, methanol/water, or alcohol solutions. The slurries were agitated for various time periods at either ambient temperature or at 45° C. The insoluble solids were recovered by filtration and analyzed using XRPD.

[4] = Solubility of Forms A, C and E in ethanol (gravimetric); conditions: for stability of the forms (order, based on the solubility data): ethanol solubility data; for solubility at 30 min / solubility at 60 min / AVERAGE SOLUBILITY / XRPD of remaining solid after the solubility experiment (form conversion) / relative solubility of the forms: ethanol; for solubility at 30 min / solubility at 60 min: organic solvent or mixture, thermodynamic from solid, AVERAGE SOLUBILITY; for XRPD of remaining solid after the solubility experiment (form conversion) / relative solubility of the forms: various temperatures
Experimental: (§1) Saturated solutions of this compound in ethanol were prepared and each solution was heated to either 25, 27, 35, 40 or 50° C.' and stirred for 30 minutes. The samples were filtered into a receiving flask and were heated at the same temperatures and stirred for another 30 minutes. Samples were removed from these flasks and were filtered into a tared vial. The remaining solution was heated and stirred for another 30 minutes. Samples were again removed from these flasks and were filtered into another tared vial. The solvents in the tared vials were removed using a rotary evaporator and the weights of the solids in the tared vials were recorded and were used to calculate solubility.
(§2) The solubilitites reported were determined gravimetrically, therefore, fluctuations in the data are possible.

physchem = conditions: organic solvent or mixture, thermodynamic from solid, AVERAGE SOLUBILITY
Experimental: as §1, §2

[5] = Stress studies (humidity / temperature, XRPD); assay type: physicochemical
Experimental: Samples of N-(2-acetyl-4,6-dimethylphenyl)-3-{[(3,4-dimethyl-5-isoxazolyl)amino]-sulfonyl}-2-thiophenecaboxamide were stressed at 22, 58, 75, and 93% RH under ambient temperature for 3 days. One sample was also placed in a 40 ° C. oven for 11 days. Samples of amorphous material were also placed in a 40 ° C. oven for 36 days or in a 70 ° C. oven for 4 days. The solids were then analyzed by XRPD.

[6] = Approximate solubilities of Form A in various solvents at ambient temperature; assay type: physicochemical; conditions: for solubility: thermodynamic from solid, approximate
Experimental: The approximate solubilities were estimated from experiments based on the total solvent used to give a solution. The actual solubilities may be greater than those calculated because of the use of too-large solvent aliquots or a slow rate of dissolution. […] If the solid dissolved before the whole aliquot of solvent was added the solubility is listed as “greater than”.

hygroscopicity (based on moisture sorption/desorption data) [1]: non-hygroscopic
Moisture Balance Results: weight loss at 5% RH [1]: <0.1% weight loss at 5% RH,
Moisture Balance Results: total weight gain at 95% RH [1]: <0.1% total weight gain at 95% RH
XRPD Results after the moisture sorption/desorption experiment [1]: remained Form C
XRPD Pattern after grinding ([2]; grind time 2 min): remained Form C
XRPD Results after slurry ([3]; ethanol, 16 days): remained the same form
stability of the forms (order, based on the solubility data) [4]: Form A >Form C >Form E
solubility at 30 min ([4]; 25 °C, 30 min): 16.1 mg/mL (≈ 36 mM)
solubility at 60 min ([4]; 25 °C, 60 min): 13.2 mg/mL (≈ 29.5 mM)
solubility at 30 min ([4]; 40 °C, 30 min): 28.3 mg/mL (≈ 63.2 mM)
solubility at 60 min ([4]; 40 °C, 60 min): 27.4 mg/mL (≈ 61.2 mM)
AVERAGE SOLUBILITY ([4]; 50 °C, 30 min): 35.6 mg/mL
AVERAGE SOLUBILITY ([4]; 50 °C, 60 min): 45.1 mg/mL
relative solubility of the forms [4]: higher solubility than Form A
Compound: CC(=O)c1cc(C)cc(C)c1NC(=O)c1sccc1S(=O)(=O)Nc1onc(C)c1C [Form C, N-(2-acetyl-4,6-dimethylphenyl)-3-{[(3,4dimethyl-5-isoxazolyl)-amino]sulfonyl}-2-thiophenecarboxamide]
XRPD of remaining solid after the solubility experiment (form conversion) [4]: did not change form; also recorded: did not convert

hygroscopicity (based on moisture sorption/desorption data) [1]: non-hygroscopic
Moisture Balance Results: weight loss at 5% RH [1]: <0.1% weight loss at 5% RH,
Moisture Balance Results: total weight gain at 95% RH [1]: 0.15% total weight gain at 95% RH
XRPD Results after the moisture sorption/desorption experiment [1]: remained Form E
weight loss or gain during the moisture sorption/desorption experiment ([1]; whole experiment): < 0.2%
solubility at 30 min (physchem; 27 °C): 12.7 mg/mL (≈ 28.4 mM)
solubility at 60 min (physchem; 27 °C): 11 mg/mL (≈ 24.6 mM)
solubility at 30 min (physchem; 35 °C): 17.7 mg/mL (≈ 39.5 mM)
solubility at 60 min (physchem; 35 °C): 18.3 mg/mL (≈ 40.9 mM)
solubility at 30 min (physchem; 50 °C): 40.8 mg/mL (≈ 91.2 mM)
solubility at 60 min (physchem; 50 °C): 39.7 mg/mL (≈ 88.7 mM)
Compound: CC(=O)c1cc(C)cc(C)c1NC(=O)c1sccc1S(=O)(=O)Nc1onc(C)c1C [Form E, N-(2-acetyl-4,6-dimethylphenyl)-3-{[(3,4dimethyl-5-isoxazolyl)-amino]sulfonyl}-2-thiophenecarboxamide]

Moisture Balance Results: weight loss at 5% RH [1]: <0.1% weight loss at 5% RH,
XRPD Pattern after stress ([5]; 40° C., 36 d): amorphous
XRPD Pattern after stress ([5]; 70° C., 4 d): a mixture of Forms E and C
XRPD Pattern after stress ([5]; ambient, 92 d (approx. 3 months)): Forms C and E
Compound: CC(=O)c1cc(C)cc(C)c1NC(=O)c1sccc1S(=O)(=O)Nc1onc(C)c1C [amorphous, N-(2-acetyl-4,6-dimethylphenyl)-3-{[(3,4dimethyl-5-isoxazolyl)-amino]sulfonyl}-2-thiophenecarboxamide]
XRPD Results after the moisture sorption/desorption experiment [1]: remained amorphous; also recorded: does not recrystallize

XRPD Results after slurry ([3]; toluene, 45° C., 5 days): A + C
Compound: CC(=O)c1cc(C)cc(C)c1NC(=O)c1sccc1S(=O)(=O)Nc1onc(C)c1C [C vs. E]

XRPD Pattern after grinding ([2]; grind time 2 min): C + E
Compound: CC(=O)c1cc(C)cc(C)c1NC(=O)c1sccc1S(=O)(=O)Nc1onc(C)c1C [A(PO)]

XRPD Results after slurry ([3]; ethanol, 20 days): A + E(min)
XRPD Results after slurry ([3]; ethanol, 27 days): A + pk 4°
XRPD Results after slurry ([3]; toluene RT, 20 days): A, SS
XRPD Results after slurry ([3]; toluene, 45° C., 5 days): A(PO)
Compound: CC(=O)c1cc(C)cc(C)c1NC(=O)c1sccc1S(=O)(=O)Nc1onc(C)c1C [A vs. E]

solubility ([6]; N,N-dimethylformamide, organic solvent or mixture): 250 mg/mL (≈ 559 mM)
solubility ([6]; acetone, organic solvent or mixture): 87 mg/mL (≈ 194 mM)
solubility ([6]; acetonitrile, organic solvent or mixture): 72 mg/mL (≈ 161 mM)
solubility ([6]; dichloromethane, organic solvent or mixture): 135 mg/mL (≈ 302 mM)
solubility ([6]; diethyl ether, organic solvent or mixture): < 9 mg/mL
solubility (in words) ([6]; diethyl other, hexanes, propanol and water): sparingly soluble
solubility ([6]; dimethyl sulfoxide, organic solvent or mixture): 144 mg/mL (≈ 322 mM)
solubility ([6]; ethanol, organic solvent or mixture): 9 mg/mL (≈ 20.1 mM)
solubility ([6]; ethyl acetate, organic solvent or mixture): 21 mg/mL (≈ 46.9 mM)
solubility ([6]; hexanes, organic solvent or mixture): < 9 mg/mL
solubility ([6]; isopropanol, organic solvent or mixture): < 10 mg/mL
solubility ([6]; methanol, organic solvent or mixture): 21 mg/mL (≈ 46.9 mM)
solubility ([6]; propanol, organic solvent or mixture): < 9 mg/mL
solubility ([6]; toluene, organic solvent or mixture): 19 mg/mL (≈ 42.5 mM)
solubility ([6]; water): < 8 mg/mL
hygroscopicity (based on moisture sorption/desorption data) [1]: non-hygroscopic
Moisture Balance Results: weight loss at 5% RH [1]: <0.1% weight loss at 5% RH,
Moisture Balance Results: total weight gain at 95% RH [1]: <0.1% total weight gain at 95% RH
XRPD Results after the moisture sorption/desorption experiment [1]: remained Form A
form after stress, all conditions of Table 10 ([5]; various conditions (22-93% RH 3 d; 40° C. 11 d)): remained Form A
XRPD Pattern after grinding ([2]; grind time 1 min): A, SS
crystallinity upon grinding ([2]; ground for up to 5 minutes, mortar and pestle): loses some crystallinity
stability of the forms (order, based on the solubility data) [4]: Form A >Form C >Form E
AVERAGE SOLUBILITY ([4]; 25 °C, 30 min): 9.5 mg/mL
AVERAGE SOLUBILITY ([4]; 25 °C, 60 min): 10.6 mg/mL
AVERAGE SOLUBILITY ([4]; 40 °C, 30 min): 17.3 mg/mL
AVERAGE SOLUBILITY ([4]; 40 °C, 60 min): 18.1 mg/mL
solubility at 30 min ([4]; 50 °C, 30 min): 40.8 mg/mL (≈ 91.2 mM)
solubility at 60 min ([4]; 50 °C, 60 min): 36.7 mg/mL (≈ 82 mM)
XRPD of remaining solid after the solubility experiment (form conversion) [4]: conversion to another form did not occur
Compound: CC(=O)c1cc(C)cc(C)c1NC(=O)c1sccc1S(=O)(=O)Nc1onc(C)c1C [Form A, N-(2-acetyl-4,6-dimethylphenyl)-3-{[(3,4dimethyl-5-isoxazolyl)-amino]sulfonyl}-2-thiophenecarboxamide]
relative solubility of the forms [4]: less soluble form; also recorded: least soluble

XRPD Results after slurry ([3]; 1:1 methanol:water, 12 days): A + C, SS
XRPD Results after slurry ([3]; toluene RT, 12 days): A + C
XRPD Results after slurry ([3]; toluene, 45° C., 5 days): A + C
Compound: CC(=O)c1cc(C)cc(C)c1NC(=O)c1sccc1S(=O)(=O)Nc1onc(C)c1C [A vs. C]
